In ChEMBL document CHEMBL1275446, “Stronger activity of human immunodeficiency virus type 1 protease inhibitors against clinical isolates of Plasmodium vivax than against those of P. falciparum” (Antimicrob Agents Chemother, 2008):
Values belong to the compound of their own block, whether it stands above or below them.

Tests used:
Plasmodium falciparum [1] = assay: Antimicrobial activity against Plasmodium falciparum at ring stage; assay type: functional, organism-based
Plasmodium vivax [2] = assay: Antimicrobial activity against Plasmodium vivax at ring stage
Plasmodium vivax [3] = assay: Antimicrobial activity against Plasmodium vivax at trophozoite stage; assay type: functional, organism-based
Plasmodium falciparum [4] = assay: Antimicrobial activity against Plasmodium falciparum harboring single copy of Pfmdr1 gene
Plasmodium vivax [5] = assay: Antimicrobial activity against Plasmodium vivax harboring single copy of Pvmdr1 gene; assay type: functional, organism-based
Plasmodium falciparum [6] = assay: Antimicrobial activity against Plasmodium falciparum harboring amplified Pfmdr1 gene
Plasmodium vivax [7] = assay: Antimicrobial activity against Plasmodium vivax harboring amplified Pvmdr1 gene; assay type: functional, organism-based

IC50 (Plasmodium falciparum [1]): 8300 nM
SMILES: CC(C)(C)NC(=O)[C@@H]1C[C@@H]2CCCC[C@@H]2CN1C[C@@H](O)[C@H](Cc1ccccc1)NC(=O)[C@H](CC(N)=O)NC(=O)c1ccc2ccccc2n1

IC50 (Plasmodium vivax [2]): 38 nM
IC50 (Plasmodium vivax [3]): 442 nM
SMILES: CCN(CC)CCCC(C)Nc1ccnc2cc(Cl)ccc12 (centres undefined) [CHLOROQUINE]

SMILES: OC(c1cc(C(F)(F)F)nc2c(C(F)(F)F)cccc12)C1CCCCN1 (centres undefined) [MEFLOQUINE]
IC50 (Plasmodium falciparum [4]): 77 nM
IC50 (Plasmodium falciparum [1]): 137 nM
IC50 (Plasmodium vivax [5]): 43 nM
IC50 (Plasmodium falciparum [6]): 182 nM
IC50 (Plasmodium vivax [7]): 176 nM

IC50 (Plasmodium falciparum [1]): 9660 nM
SMILES: CC(C)c1nc(CN(C)C(=O)N[C@H](C(=O)N[C@@H](Cc2ccccc2)C[C@H](O)[C@H](Cc2ccccc2)NC(=O)OCc2cncs2)C(C)C)cs1 [RITONAVIR]
